Experimental data taken from patent publication US11713344B2 (DONG-A ST CO., LTD., priority 2017, dated 2023).

Legend:
[1] = biological target: Human glucagon receptors (Homo sapiens, UniProt P47871); test: Glucagon receptor activation assay (CRE-luciferase reporter, CHO-K1)
Procedure: (§1) Then, the resulting increased luciferase activity was evaluated as a measurement of the effect on each receptor activation.
(§2) After 3 hours of transfection, medium was exchanged to Alpha Minimal Essential Medium (α-MEM) comprising 10% fetal bovine serum (FBS). Next day, the medium was exchanged to α-MEM comprising the analog of the present invention and 0.1% bovine serum albumin (BSA). After 6 hours, dual luciferase assay reagent was added in the same amount as the medium in which the cells were submerged, and firefly luciferase and Renilla luciferase activities were continuously measured. Firefly luciferase activity values were corrected against Renilla luciferase activity to yield transfection efficiency.

[2] = biological target: Human GLP-1 receptors (Homo sapiens, UniProt P43220); test: GLP-1 receptor activation assay (CRE-luciferase reporter, CHO-K1)
Human GLP-1 receptors, sequence (P43220 24-463): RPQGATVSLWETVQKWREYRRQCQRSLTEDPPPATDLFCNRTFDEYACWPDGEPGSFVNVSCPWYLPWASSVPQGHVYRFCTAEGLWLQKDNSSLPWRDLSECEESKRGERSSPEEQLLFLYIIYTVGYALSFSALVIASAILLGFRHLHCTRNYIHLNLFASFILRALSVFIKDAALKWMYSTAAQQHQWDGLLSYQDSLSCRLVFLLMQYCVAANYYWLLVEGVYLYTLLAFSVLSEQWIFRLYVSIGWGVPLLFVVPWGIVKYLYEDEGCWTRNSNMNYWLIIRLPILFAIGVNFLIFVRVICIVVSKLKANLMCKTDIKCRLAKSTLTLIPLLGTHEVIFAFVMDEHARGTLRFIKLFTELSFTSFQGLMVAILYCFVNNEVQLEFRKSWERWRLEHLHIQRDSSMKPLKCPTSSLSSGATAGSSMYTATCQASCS
Procedure: as §1, §2

Human glucagon receptors, sequence (P47871 26-477): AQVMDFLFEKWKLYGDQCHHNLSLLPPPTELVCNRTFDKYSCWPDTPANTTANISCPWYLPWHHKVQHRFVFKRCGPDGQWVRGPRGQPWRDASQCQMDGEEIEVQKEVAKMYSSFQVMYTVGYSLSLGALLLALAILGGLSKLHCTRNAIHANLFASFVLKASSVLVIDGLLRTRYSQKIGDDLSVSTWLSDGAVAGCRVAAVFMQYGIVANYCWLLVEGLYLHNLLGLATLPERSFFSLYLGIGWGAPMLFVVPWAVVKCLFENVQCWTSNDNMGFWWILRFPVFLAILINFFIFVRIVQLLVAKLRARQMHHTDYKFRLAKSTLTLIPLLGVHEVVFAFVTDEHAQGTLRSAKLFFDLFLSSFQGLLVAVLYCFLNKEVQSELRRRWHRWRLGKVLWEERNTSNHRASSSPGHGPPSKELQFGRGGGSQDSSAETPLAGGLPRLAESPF

Compound | EC50 [1] | EC50 [2]
CCCCCCCCCCCCCCCCCC(=O)N[C@@H](CCC(=O)NCCOCCOCC(=O)NCCOCCOCC(=O)NCCCC[C@H](NC(=O)[C@H](CC(=O)O)NC(=O)[C@H](CO)NC(=O)[C@@H](NC(=O)[C@H](Cc1ccccc1)NC(=O)[C@@H](NC(=O)CNC(=O)[C@H](CCC(N)=O)NC(=O)C(C)(C)NC(=O)[C@@H](N)Cc1c[nH]cn1)[C@@H](C)O)[C@@H](C)O)C(=O)N[C@@H](CO)C(=O)N[C@@H](CCCCN)C(=O)N[C@@H](Cc1ccc(O)cc1)C(=O)N[C@@H](CC(C)C)C(=O)N[C@@H](CC(=O)O)C(=O)NC(C)(C)C(=O)N[C@@H](CCCNC(=N)N)C(=O)N[C@@H](CCCNC(=N)N)C(=O)N[C@@H](C)C(=O)N[C@@H](CCC(N)=O)C(=O)N[C@@H](CC(=O)O)C(=O)N[C@@H](Cc1ccccc1)C(=O)N[C@H](C(=O)N[C@@H](CCC(N)=O)C(=O)N[C@@H](Cc1c[nH]c2ccccc12)C(=O)N[C@@H](CC(C)C)C(=O)N[C@@H](CCSC)C(=O)N[C@@H](CC(N)=O)C(=O)N[C@H](C(=O)N[C@@H](CCCCN)C(=O)O)[C@@H](C)O)C(C)C)C(=O)O [Compound 3] | < 0.01 nM | < 0.01 nM
CCCCCCCCCCCCCCCCCC(=O)N[C@@H](CCC(=O)NCCOCCOCC(=O)NCCOCCOCC(=O)NCCCC[C@H](NC(=O)[C@H](CC(=O)O)NC(=O)[C@H](CO)NC(=O)[C@@H](NC(=O)[C@H](Cc1ccccc1)NC(=O)[C@@H](NC(=O)CNC(=O)[C@H](CCC(N)=O)NC(=O)C(C)(C)NC(=O)[C@@H](N)Cc1c[nH]cn1)[C@@H](C)O)[C@@H](C)O)C(=O)N[C@@H](CO)C(=O)N[C@@H](CCCCN)C(=O)N[C@@H](Cc1ccc(O)cc1)C(=O)N[C@@H](CC(C)C)C(=O)N[C@@H](CC(=O)O)C(=O)NC(C)(C)C(=O)N[C@@H](CCCNC(=N)N)C(=O)N[C@@H](CCCNC(=N)N)C(=O)N[C@@H](C)C(=O)N[C@@H](CCC(N)=O)C(=O)N[C@@H](CC(=O)O)C(=O)N[C@@H](Cc1ccccc1)C(=O)N[C@H](C(=O)N[C@@H](CCC(N)=O)C(=O)N[C@@H](Cc1c[nH]c2ccccc12)C(=O)N[C@@H](CC(C)C)C(=O)N[C@@H](CCSC)C(=O)N[C@@H](CC(N)=O)C(=O)N[C@H](C(=O)N[C@@H](CCCCN)C(N)=O)[C@@H](C)O)C(C)C)C(=O)O [Compound 6] | < 0.01 nM | < 0.01 nM
CCCCCCCCCCCCCCCCCC(=O)N[C@@H](CCC(=O)NCCOCCOCC(=O)NCCOCCOCC(=O)NCCCC[C@H](NC(=O)[C@H](CC(=O)O)NC(=O)[C@H](CO)NC(=O)[C@@H](NC(=O)[C@H](Cc1ccccc1)NC(=O)[C@@H](NC(=O)CNC(=O)[C@H](CCC(N)=O)NC(=O)C(C)(C)NC(=O)[C@@H](N)Cc1c[nH]cn1)[C@@H](C)O)[C@@H](C)O)C(=O)N[C@@H](CO)C(=O)N[C@@H](CCCCN)C(=O)N[C@@H](Cc1ccc(O)cc1)C(=O)N[C@@H](CC(C)C)C(=O)N[C@@H](CC(=O)O)C(=O)NC(C)(C)C(=O)N[C@@H](CCCNC(=N)N)C(=O)N[C@@H](CCCNC(=N)N)C(=O)N[C@@H](C)C(=O)N[C@@H](CCC(N)=O)C(=O)N[C@@H](CC(=O)O)C(=O)N[C@@H](Cc1ccccc1)C(=O)N[C@H](C(=O)N[C@@H](CCC(N)=O)C(=O)N[C@@H](Cc1c[nH]c2ccccc12)C(=O)N[C@@H](CC(C)C)C(=O)N[C@@H](CCSC)C(=O)N[C@@H](CC(N)=O)C(=O)N[C@H](C(=O)N[C@@H](CCCCN)C(=O)N[C@@H](CCCNC(=N)N)C(=O)N[C@@H](CC(N)=O)C(=O)N[C@@H](CCCNC(=N)N)C(=O)N[C@@H](CC(N)=O)C(=O)N[C@@H](CC(N)=O)C(=O)N[C@H](C(=O)N[C@@H](C)C(=O)O)[C@@H](C)CC)[C@@H](C)O)C(C)C)C(=O)O [Compound 7] | < 0.01 nM | < 0.01 nM
CCCCCCCCCCCCCCCCCCCC(=O)N[C@@H](CCC(=O)NCCOCCOCC(=O)NCCOCCOCC(=O)NCCCC[C@H](NC(=O)[C@H](CC(=O)O)NC(=O)[C@H](CO)NC(=O)[C@@H](NC(=O)[C@H](Cc1ccccc1)NC(=O)[C@@H](NC(=O)CNC(=O)[C@H](CCC(N)=O)NC(=O)C(C)(C)NC(=O)[C@@H](N)Cc1c[nH]cn1)[C@@H](C)O)[C@@H](C)O)C(=O)N[C@@H](CO)C(=O)N[C@@H](CCCCN)C(=O)N[C@@H](Cc1ccc(O)cc1)C(=O)N[C@@H](CC(C)C)C(=O)N[C@@H](CC(=O)O)C(=O)NC(C)(C)C(=O)N[C@@H](CCCNC(=N)N)C(=O)N[C@@H](CCCNC(=N)N)C(=O)N[C@@H](C)C(=O)N[C@@H](CCC(N)=O)C(=O)N[C@@H](CC(=O)O)C(=O)N[C@@H](Cc1ccccc1)C(=O)N[C@H](C(=O)N[C@@H](CCC(N)=O)C(=O)N[C@@H](Cc1c[nH]c2ccccc12)C(=O)N[C@@H](CC(C)C)C(=O)N[C@@H](CCSC)C(=O)N[C@@H](CC(N)=O)C(=O)N[C@H](C(=O)N[C@@H](CCCCN)C(=O)O)[C@@H](C)O)C(C)C)C(=O)O [Compound 8] | 0.01 to 0.1 nM | 0.01 to 0.1 nM
CCCCCCCCCCCCCCCCCC(=O)N[C@@H](CCC(=O)N[C@@H](CCC(=O)NCCOCCOCC(=O)NCCOCCOCC(=O)NCCCC[C@H](NC(=O)[C@H](CC(=O)O)NC(=O)[C@H](CO)NC(=O)[C@@H](NC(=O)[C@H](Cc1ccccc1)NC(=O)[C@@H](NC(=O)CNC(=O)[C@H](CCC(N)=O)NC(=O)C(C)(C)NC(=O)[C@@H](N)Cc1c[nH]cn1)[C@@H](C)O)[C@@H](C)O)C(=O)N[C@@H](CO)C(=O)N[C@@H](CCCCN)C(=O)N[C@@H](Cc1ccc(O)cc1)C(=O)N[C@@H](CC(C)C)C(=O)N[C@@H](CC(=O)O)C(=O)NC(C)(C)C(=O)N[C@@H](CCCNC(=N)N)C(=O)N[C@@H](CCCNC(=N)N)C(=O)N[C@@H](C)C(=O)N[C@@H](CCC(N)=O)C(=O)N[C@@H](CC(=O)O)C(=O)N[C@@H](Cc1ccccc1)C(=O)N[C@H](C(=O)N[C@@H](CCC(N)=O)C(=O)N[C@@H](Cc1c[nH]c2ccccc12)C(=O)N[C@@H](CC(C)C)C(=O)N[C@@H](CCSC)C(=O)N[C@@H](CC(N)=O)C(=O)N[C@H](C(=O)N[C@@H](CCCCN)C(=O)O)[C@@H](C)O)C(C)C)C(=O)O)C(=O)O [Compound 9] | < 0.01 nM | < 0.01 nM
CCCCCCCCCCCCCCCCCC(=O)N[C@@H](CCC(=O)NCCOCCOCC(=O)NCCOCCOCC(=O)NCCOCCOCC(=O)NCCCC[C@H](NC(=O)[C@H](CC(=O)O)NC(=O)[C@H](CO)NC(=O)[C@@H](NC(=O)[C@H](Cc1ccccc1)NC(=O)[C@@H](NC(=O)CNC(=O)[C@H](CCC(N)=O)NC(=O)C(C)(C)NC(=O)[C@@H](N)Cc1c[nH]cn1)[C@@H](C)O)[C@@H](C)O)C(=O)N[C@@H](CO)C(=O)N[C@@H](CCCCN)C(=O)N[C@@H](Cc1ccc(O)cc1)C(=O)N[C@@H](CC(C)C)C(=O)N[C@@H](CC(=O)O)C(=O)NC(C)(C)C(=O)N[C@@H](CCCNC(=N)N)C(=O)N[C@@H](CCCNC(=N)N)C(=O)N[C@@H](C)C(=O)N[C@@H](CCC(N)=O)C(=O)N[C@@H](CC(=O)O)C(=O)N[C@@H](Cc1ccccc1)C(=O)N[C@H](C(=O)N[C@@H](CCC(N)=O)C(=O)N[C@@H](Cc1c[nH]c2ccccc12)C(=O)N[C@@H](CC(C)C)C(=O)N[C@@H](CCSC)C(=O)N[C@@H](CC(N)=O)C(=O)N[C@H](C(=O)N[C@@H](CCCCN)C(=O)O)[C@@H](C)O)C(C)C)C(=O)O [Compound 10] | < 0.01 nM | < 0.01 nM
CCCCCCCCCCCCCCCCCC(=O)N[C@@H](CCC(=O)NCC(=O)N[C@@H](CO)C(=O)NCC(=O)N[C@@H](CO)C(=O)NCC(=O)NCC(=O)NCCCC[C@H](NC(=O)[C@H](CC(=O)O)NC(=O)[C@H](CO)NC(=O)[C@@H](NC(=O)[C@H](Cc1ccccc1)NC(=O)[C@@H](NC(=O)CNC(=O)[C@H](CCC(N)=O)NC(=O)C(C)(C)NC(=O)[C@@H](N)Cc1c[nH]cn1)[C@@H](C)O)[C@@H](C)O)C(=O)N[C@@H](CO)C(=O)N[C@@H](CCCCN)C(=O)N[C@@H](Cc1ccc(O)cc1)C(=O)N[C@@H](CC(C)C)C(=O)N[C@@H](CC(=O)O)C(=O)NC(C)(C)C(=O)N[C@@H](CCCNC(=N)N)C(=O)N[C@@H](CCCNC(=N)N)C(=O)N[C@@H](C)C(=O)N[C@@H](CCC(N)=O)C(=O)N[C@@H](CC(=O)O)C(=O)N[C@@H](Cc1ccccc1)C(=O)N[C@H](C(=O)N[C@@H](CCC(N)=O)C(=O)N[C@@H](Cc1c[nH]c2ccccc12)C(=O)N[C@@H](CC(C)C)C(=O)N[C@@H](CCSC)C(=O)N[C@@H](CC(N)=O)C(=O)N[C@H](C(=O)N[C@@H](CCCCN)C(=O)O)[C@@H](C)O)C(C)C)C(=O)O [Compound 11] | 0.01 to 0.1 nM | < 0.01 nM
CCCCCCCCCCCCCCCCCC(=O)N[C@@H](CCC(=O)NCCOCCOCC(=O)NCCOCCOCC(=O)NCCCC[C@H](NC(=O)[C@H](CC(=O)O)NC(=O)[C@H](CO)NC(=O)[C@@H](NC(=O)[C@H](Cc1ccccc1)NC(=O)[C@@H](NC(=O)CNC(=O)[C@H](CCC(N)=O)NC(=O)C(C)(C)NC(=O)[C@@H](N)Cc1c[nH]cn1)[C@@H](C)O)[C@@H](C)O)C(=O)N[C@@H](CO)C(=O)N[C@@H](CCCCN)C(=O)N[C@@H](Cc1ccc(O)cc1)C(=O)N[C@@H](CC(C)C)C(=O)N[C@@H](CC(=O)O)C(=O)NC(C)(C)C(=O)N[C@@H](CCCNC(=N)N)C(=O)N[C@@H](CCCNC(=N)N)C(=O)N[C@@H](C)C(=O)N[C@@H](CCC(N)=O)C(=O)N[C@@H](CC(=O)O)C(=O)N[C@@H](Cc1ccccc1)C(=O)N[C@H](C(=O)N[C@@H](CCC(N)=O)C(=O)N[C@@H](Cc1c[nH]c2ccccc12)C(=O)N[C@@H](CC(C)C)C(=O)N[C@@H](CC(C)C)C(=O)N[C@@H](CCCNC(=N)N)C(=O)N[C@@H](C)C(=O)N[C@@H](CCCCN)C(=O)O)C(C)C)C(=O)O [Compound 12] | < 0.01 nM | < 0.01 nM
CSCC[C@H](NC(=O)[C@H](CC(C)C)NC(=O)[C@H](Cc1c[nH]c2ccccc12)NC(=O)[C@H](CCC(N)=O)NC(=O)[C@@H](NC(=O)[C@H](Cc1ccccc1)NC(=O)[C@H](CC(=O)O)NC(=O)[C@H](CCC(N)=O)NC(=O)[C@H](C)NC(=O)[C@H](CCCNC(=N)N)NC(=O)[C@H](CCCNC(=N)N)NC(=O)C(C)(C)NC(=O)[C@H](CC(=O)O)NC(=O)[C@H](CC(C)C)NC(=O)[C@H](Cc1ccc(O)cc1)NC(=O)[C@H](CCCCN)NC(=O)[C@H](CO)NC(=O)[C@H](CCCCNC(=O)COCCOCCNC(=O)COCCOCCNC(=O)CC[C@H](NC(=O)CCCCCCCCCCCCCCCCC(N)=O)C(=O)O)NC(=O)[C@H](CC(=O)O)NC(=O)[C@H](CO)NC(=O)[C@@H](NC(=O)[C@H](Cc1ccccc1)NC(=O)[C@@H](NC(=O)CNC(=O)[C@H](CCC(N)=O)NC(=O)C(C)(C)NC(=O)[C@@H](N)Cc1c[nH]cn1)[C@@H](C)O)[C@@H](C)O)C(C)C)C(=O)N[C@@H](CC(N)=O)C(=O)N[C@H](C(=O)N[C@@H](CCCCN)C(=O)O)[C@@H](C)O [Compound 13] | 0.01 to 0.1 nM | 0.01 to 0.1 nM
